Measurements published in patent US20240425464A1, “Substituted Monohydrazides as Potent Antifungal Agents” (University of Kentucky Research Foundation, priority 2023, published 2024).
Converted amounts (≈) assume the structure as drawn. Read-outs that look alike come from different tables or passages of the source.

Tests used:
Experiment in all cases: MIC determination by in vitro antifungal assay
Format in all cases: cell-based, Candida auris
[1] = test system: C. auris AR Bank #383
Experimental: (§1) The antifungal agent amphotericin B (AmB) was purchased from VWR (Radnor PA, USA). AmB was dissolved in DMSO at a final concentration of 5 mg/mL and was stored at −20° C., protected from light. Candida albicans American Type Culture Collection (ATCC) 10231 (strain A), C. albicans ATCC 64124 (B), and C. albicans ATCC MYA-2876 (C) were obtained from Utah State University. C. albicans ATCC 90819 (D), C. albicans ATCC MYA-2310 (E), C. albicans ATCC MYA-1237 (F), C. albicans ATCC MYA-1003 (G), Candida glabrata ATCC 2001 (H), Candida krusei ATCC 6258 (I), Candida parapsilosis ATCC 22019 (J), Cryptococcus neoformans ATCC MYA-895 (M), Aspergillus terreus ATCC MYA-3633 (N), and Aspergillus flavus ATCC MYA-3631 (0) were obtained from the American Type Culture Collection (ATCC; Manassas, VA, USA). Aspergillus nidulans ATCC 38163 (P) was obtained from University of Kentucky. Clinically derived Aspergillus fumigatus NRRL 163 (Q), A. fumigatus NRRL 5109 (R), and A. fumigatus NRRL 6113 (S) were obtained from Northern Regional Research Laboratory (NRRL). Candida auris 384 (K), C. auris 390 (L), and fungal strains 381-400 (including 10 C. auris (AR Bank #381-390), 3 Candida duobushaemulonii (AR Bank #391, AR Bank #392, and AR Bank #394), 2 Candida haemulonii (AR Bank #393 and AR Bank #395), 1 Kodameae ohmeri (AR Bank #396), 1 C. krusei (AR Bank #397), 1 Candida lusitaniae (AR Bank #398), and 2 Saccharomyces cerevisiae strains (AR Bank #399 and AR Bank #400)) were part of a larger fungal library from the AR Bank maintained by the Centers for Disease Control and Prevention (CDC; Atlanta, GA, USA). Filamentous fungi and yeasts were cultivated at 35° C. in RPMI 1640 medium (with L-glutamine, without sodium bicarbonate, Sigma-Aldrich, St. Louis, MO) buffered to a pH of 7.0 with 0.165 M morpholinepropanesulfonic acid (MOPS) buffer (Sigma-Aldrich). For cytotoxicity assays, HepG2 and the mouse macrophage cell line J774A.1 were obtained from University of Kentucky. The human embryonic kidney cell line, HEK-293, was bought from the ATCC. Mammalian cells were grown in Dulbecco's Modified Eagle's Medium (DMEM) (from VWR) with 10% fetal bovine serum (FBS) (from VWR) and 1% Pen/Strep (from ATCC). Cell lines were cultured at 37° C. with 5% CO2 and passaged by trypsinization with 0.05% trypsin: 0.53 mM EDTA (from Sigma-Aldrich).
(§2) From the actively growing yeast culture, 100 µL were then transferred to 900 μL of RPMI 1640 medium and re-adjusted to achieve OD600 of 0.12 (˜1×10^6 CFU/mL). The cell suspension was further diluted to achieve 1:100 in RPMI 1640 medium.

[2] = test system: C. auris AR Bank #388
Experimental: as §1, §2

[3] = test system: C. auris AR Bank #381
Experimental: as §1, §2

[4] = test system: C. auris AR Bank #389
Experimental: as §1, §2

[5] = test system: C. auris AR Bank #385
Experimental: as §1, §2

[6] = test system: C. auris AR Bank #387
Experimental: as §1, §2

[7] = test system: C. auris AR Bank #382
Experimental: as §1, §2

[8] = test system: C. auris AR Bank #386
Experimental: as §1, §2

[9] = test system: C. auris strain AR Bank #390 (L)
Experimental: as §1, §2
Finally, the activity of these monohydrazides was explored against […] non-Candida strains: Cryptococcus neoformans ATCC MYA-895 (M), Aspergillus terreus ATCC MYA-3633 (N), Aspergillus flavus ATCC MYA-3631 (O), Aspergillus nidulans ATCC 38163 (P), Aspergillus fumigatus NRRL 163 (Q), A. fumigatus NRRL 5109 (R), and A. fumigatus NRRL 6113 (S) (Tables 1A and 1B). The double dilution method was used with concentrations ranging from 0.06 to 31.3 j·tg mL^−1 for monohydrazides 1a-9j, and the commercially available positive antifungal control amphotericin B (AmB).

[10] = Candidozyma auris, C. auris AR Bank #383, read-out: MIC
[11] = Candidozyma auris, C. auris AR Bank #388, read-out: MIC
[12] = Candidozyma auris, C. auris AR Bank #381, read-out: MIC
[13] = Candidozyma auris, C. auris AR Bank #389, read-out: MIC
[14] = Candidozyma auris, C. auris AR Bank #385, read-out: MIC
[15] = Candidozyma auris, C. auris AR Bank #387, read-out: MIC
[16] = Candidozyma auris, C. auris AR Bank #382, read-out: MIC
[17] = Candidozyma auris, C. auris AR Bank #386, read-out: MIC
[18] = Candidozyma auris, C. auris AR Bank #390 (L), read-out: MIC
[19] = Candidozyma auris, strain L = C. auris AR Bank # 0390 (Tables 1A/1B), read-out: MIC
[20] = Candidozyma auris, C. auris AR Bank # 383 (Table 2B), read-out: MIC
[21] = Candidozyma auris, C. auris AR Bank # 388 (Table 2B), read-out: MIC
[22] = Candidozyma auris, C. auris AR Bank # 381 (Table 2B), read-out: MIC
[23] = Candidozyma auris, C. auris AR Bank # 389 (Table 2B), read-out: MIC
[24] = Candidozyma auris, C. auris AR Bank # 385 (Table 2B), read-out: MIC
[25] = Candidozyma auris, C. auris AR Bank # 387 (Table 2B), read-out: MIC
[26] = Candidozyma auris, C. auris AR Bank # 382 (Table 2B), read-out: MIC
[27] = Candidozyma auris, C. auris AR Bank # 386 (Table 2B), read-out: MIC
[28] = Candidozyma auris, C. auris AR Bank # 390 (L) (Table 2B), read-out: MIC
[29] = strain L = C. auris AR Bank # 0390 (Tables 1A/1B)

SMILES	MIC [1, 10] [µg/mL]	MIC [2, 11] [µg/mL]	MIC [3, 12] [µg/mL]	MIC [4, 13] [µg/mL]	MIC [5, 14] [µg/mL]	MIC [6, 15] [µg/mL]	MIC [7, 16] [µg/mL]	MIC [8, 17] [µg/mL]	MIC [9, 18] [µg/mL]	MIC [9, 19] [µg/mL]	MIC [1, 20] [µg/mL]	MIC [2, 21] [µg/mL]	MIC [3, 22] [µg/mL]	MIC [4, 23] [µg/mL]	MIC [5, 24] [µg/mL]	MIC [6, 25] [µg/mL]	MIC [7, 26] [µg/mL]	MIC [8, 27] [µg/mL]	MIC [9, 28] [µg/mL]	further results
O=C(NNc1cc(F)cc(F)c1)c1ccccn1 [Compound 2i]	0.24 (≈ 0.963 µM)	0.24 (≈ 0.963 µM)	0.98 (≈ 3.93 µM)	0.24 (≈ 0.963 µM)	0.24 (≈ 0.963 µM)	0.24 (≈ 0.963 µM)	0.12 (≈ 0.482 µM)	≤ 0.06	0.49 (≈ 1.97 µM)	0.49 (≈ 1.97 µM)	–	–	–	–	–	–	–	–	–	–
O=C(NNc1cc(Cl)cc(Cl)c1)c1ccc(F)cc1F [Compound 1j]	–	–	–	–	–	–	–	–	–	> 31.3	> 31.3	> 31.3	> 31.3	> 31.3	31.3 (≈ 98.7 µM)	> 31.3	15.6 (≈ 49.2 µM)	> 31.3	> 31.3	–
COc1ccc(NNC(=O)c2ncc(F)cc2F)cc1 [Compound 7f]	–	–	–	–	–	–	–	–	–	0.98 (≈ 3.51 µM)	0.98 (≈ 3.51 µM)	0.98 (≈ 3.51 µM)	0.98 (≈ 3.51 µM)	0.98 (≈ 3.51 µM)	0.49 (≈ 1.75 µM)	0.98 (≈ 3.51 µM)	0.98 (≈ 3.51 µM)	0.98 (≈ 3.51 µM)	31.3 (≈ 112 µM)	–
O=C(NNc1ccc(F)cc1)c1ncc(F)cc1F [Compound 7d]	–	–	–	–	–	–	–	–	–	0.98 (≈ 3.67 µM)	1.95 (≈ 7.3 µM)	0.49 (≈ 1.83 µM)	1.95 (≈ 7.3 µM)	1.95 (≈ 7.3 µM)	0.49 (≈ 1.83 µM)	0.49 (≈ 1.83 µM)	0.98 (≈ 3.67 µM)	0.98 (≈ 3.67 µM)	3.9 (≈ 14.6 µM)	–
COc1ccc(NNC(=O)c2cnccn2)cc1 [Compound 9f]	0.98 (≈ 4.01 µM)	0.98 (≈ 4.01 µM)	1.95 (≈ 7.98 µM)	0.98 (≈ 4.01 µM)	0.98 (≈ 4.01 µM)	1.95 (≈ 7.98 µM)	0.98 (≈ 4.01 µM)	0.49 (≈ 2.01 µM)	0.98 (≈ 4.01 µM)	0.49 (≈ 2.01 µM)	–	–	–	–	–	–	–	–	–	–
COc1cccc(NNC(=O)c2ccc(F)cn2)c1 [Compound 3c]	–	–	–	–	–	–	–	–	–	–	–	–	–	–	–	–	–	–	–	MIC ([1]; C. auris AR Bank # 383 (Table 2B)): 0.98 μg/mL^−1; MIC ([2]; C. auris AR Bank # 388 (Table 2B)): 0.98 μg/mL^−1; MIC ([3]; C. auris AR Bank # 381 (Table 2B)): 0.98 μg/mL^−1; MIC ([4]; C. auris AR Bank # 389 (Table 2B)): 0.98 μg/mL^−1; MIC ([5]; C. auris AR Bank # 385 (Table 2B)): 0.49 μg/mL^−1; MIC ([6]; C. auris AR Bank # 387 (Table 2B)): 0.98 μg/mL^−1; MIC ([7]; C. auris AR Bank # 382 (Table 2B)): 0.49 μg/mL^−1; MIC ([8]; C. auris AR Bank # 386 (Table 2B)): 0.98 μg/mL^−1; MIC ([9]; C. auris AR Bank # 390 (L) (Table 2B)): 3.9 μg/mL^−1; MIC [9, 29]: 0.98 μg/mL^−1
COc1cccc(NNC(=O)c2ccccn2)c1 [Compound 2c]	–	–	–	–	–	–	–	–	–	–	–	–	–	–	–	–	–	–	–	MIC ([1]; C. auris AR Bank #383): 0.98 μg/mL^−1; MIC ([2]; C. auris AR Bank #388): 3.9 μg/mL^−1; MIC ([3]; C. auris AR Bank #381): 3.9 μg/mL^−1; MIC ([4]; C. auris AR Bank #389): 0.49 μg/mL^−1; MIC ([5]; C. auris AR Bank #385): 3.9 μg/mL^−1; MIC ([6]; C. auris AR Bank #387): 0.49 μg/mL^−1; MIC ([7]; C. auris AR Bank #382): 0.98 μg/mL^−1; MIC ([8]; C. auris AR Bank #386): 0.49 μg/mL^−1; MIC ([9]; C. auris AR Bank #390 (L)): 0.98 μg/mL^−1; MIC [9, 29]: 0.98 μg/mL^−1
COc1ccc(NNC(=O)c2ccccn2)cc1 [Compound 2f]	1.95 (≈ 8.02 µM)	0.49 (≈ 2.01 µM)	1.95 (≈ 8.02 µM)	0.24 (≈ 0.987 µM)	0.98 (≈ 4.03 µM)	0.49 (≈ 2.01 µM)	1.95 (≈ 8.02 µM)	0.24 (≈ 0.987 µM)	0.12 (≈ 0.493 µM)	0.12 (≈ 0.493 µM)	–	–	–	–	–	–	–	–	–	–
